The record followed here is patent publication US12516016B2, “GPX4 inhibitors, pharmaceutical compositions thereof, and their use for treating GPX4-mediated diseases” (EUBULUS BIOTHERAPEUTICS (HONG KONG) LIMITED, priority 2020, dated 2026).

The experiment has as its system hepatocellular carcinoma cell line Hub-7. Nature of the experiment: Cell proliferation assay (CELL-TITER GLO cell viability). It counts as cell-based. To be noted: 24 h, Hub-7 cells, 24 h incubation, read-out: Inhibition of Cell Proliferation EC50. In a few lines: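 […] cells (4,000/well) seeded overnight, then exposed 24 h to compound from 10 μM in 3-fold serial dilutions. Viability read by CELL-TITER GLO luminescence; EC50 values derived.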

Each structure is given as a SMILES string. pEC50: −log10 of the molar value. Bounds are passed on as bounds.

With `C#CC(=O)N(c1cccc(Cl)c1)C1(C(=O)NCC(=O)NCc2ccccc2)CCOCC1` [A188, N-(2-(Benzylamino)-2-oxoethyl)-4-(N-(3-chlorophenyl)propiolamido)tetrahydro-2H-pyran-4-carboxamide], the pEC50 is 6.30 to 7.00.

As to `C#CC(=O)N(c1cccc(C(=O)OC)c1)C(C(=O)NC(C)(C)C)c1ccc(N)cc1` (centres unmarked) [A8, Methyl 3-(N-(1-(4-aminophenyl)-2-(tert-butylamino)-2-oxoethyl)-propiolamido)-benzoate], the pEC50 was not below 7.00.

On to `COc1ccc(N(C(=O)CCl)C(C(=O)NCCc2ccccc2)c2ccc(N)cc2)cc1Cl` (centres unmarked) [C3, 2-(4-aminophenyl)-2-(2-chloro-N-(3-chloro-4-methoxyphenyl)acetamido)-N-phenethylacetamide], for which the pEC50 was 6.30 to 7.00.

In the case of `C#CC(=O)N(c1cccc(Cl)c1Cl)C(C(=O)NCc1ccccc1)c1ccccc1` (centres unmarked) [A82, N-(2-(Benzylamino)-2-oxo-1-phenylethyl)-N-(2,3-dichlorophenyl)-propiolamide], the pEC50 is not below 7.00.

For the compound `C#CC(=O)N(c1cccc(Cl)c1)C1(C(=O)NCC(=O)N2CCCC(CO)C2)CCOCC1` (centres unmarked) [A194, 4-(N-(3-Chlorophenyl)propiolamido)-N-(2-(3-(hydroxymethyl)piperidin-1-yl)-2-oxoethyl)tetrahydro-2H-pyran-4-carboxamide], the pEC50 was 5.00 to 5.70.

On to `C#CC(=O)N(c1cccc(Cl)c1)C1(C(=O)NCc2ccccc2)CCC(F)(F)CC1` [A103, N-Benzyl-1-(N-(3-chlorophenyl)propiolamido)-4,4-difluorocyclohexane-carboxamide], for which the pEC50 is not below 7.00.

On to `C#CC(=O)N(c1cccc(C(=O)OC)c1)C(C(=O)NCc1ccccc1)c1cccs1` (centres unmarked) [A73, Methyl 3-(N-(2-(benzylamino)-2-oxo-1-(thiophen-2-yl)ethyl)propiolamido)-benzoate], for which the pEC50 was not below 7.00.

In the case of `C#CC(=O)N(c1cccc(Cl)c1)C(C(=O)NCc1ccccc1)c1ccccc1F` (centres unmarked) [A90, N-(2-(Benzylamino)-1-(2-fluorophenyl)-2-oxoethyl)-N-(3-chlorophenyl)-propiolamide], the pEC50 was not below 7.00.

`Nc1ccc(C(C(=O)NCCc2ccccc2)N(C(=O)CCl)c2cccc(Cl)c2)cc1` (centres unmarked) [C6, 2-chloro-N-(3-chlorophenyl)-N-(1-(4-aminophenyl)-2-oxo-2-(phenethylamino)ethyl)acetamide]: the pEC50 was 5.70 to 6.30.

`O=C(C#CCO)N(c1cc(Cl)ccc1Cl)C1(C(=O)NCc2ccccc2)CCOCC1` [A130, N-Benzyl-4-(N-(2,5-dichlorophenyl)-4-hydroxybut-2-ynamido)tetrahydro-2H-pyran-4-carboxamide]: the pEC50 is less than 5.00.

For the compound `N#CCC(=O)N(c1cccc(Cl)c1)C1(C(=O)NCc2ccccc2)CCOCC1` [D7, N-Benzyl-4-(N-(3-chlorophenyl)-2-cyanoacetamido)tetrahydro-2H-pyran-4-carboxamide], the pEC50 is less than 5.00.

Turning to `C#CC(=O)N(c1ccc(N)cc1)C(C(=O)NC(C)(C)C)c1cccc(N)c1` (centres unmarked) [A22, N-(4-Aminophenyl)-N-(1-(3-aminophenyl)-2-(tert-butylamino)-2-oxoethyl)-propiolamide], the pEC50 is 5.00 to 5.70.

On to `C#CC(=O)N(c1ccc(OC)c(Cl)c1)C(C(=O)NCc1ccccc1)c1ccccc1` (centres unmarked) [A93, N-(2-(Benzylamino)-2-oxo-1-phenylethyl)-N-(3-chloro-4-methoxyphenyl)-propiolamide], for which the pEC50 was not below 7.00.

With `C#CC(=O)N(CCc1ccccc1)C1(C(=O)NCc2ccccc2)CCCC(C(=O)OC)C1` (centres unmarked) [A166, Methyl 3-(benzylcarbamoyl)-3-(N-phenethylpropiolamido)cyclohexane-1-carboxylate], the pEC50 was 6.30 to 7.00.

As to `C#CC(=O)N(c1cccc(Cl)c1)C(C(=O)NCc1ccc(F)cc1)c1ccccc1` (centres unmarked) [A115, N-(3-Chlorophenyl)-N-(2-((4-fluorobenzyl)amino)-2-oxo-1-phenylethyl)-propiolamide], the pEC50 was not below 7.00.

As to `C#CC(=O)N(c1cccc(C(=O)OC)c1)C(C(=O)NCc1ccccc1)c1ccccc1` (centres unmarked) [A76, Methyl 3-(N-(2-(benzylamino)-2-oxo-1-phenylethyl)propiolamido)benzoate], the pEC50 was not below 7.00.

For `C#CC(=O)N(c1cccc(Cl)c1)C(C(=O)NCc1ccccc1)c1ccc(F)cc1` (centres unmarked) [A87, N-(2-(Benzylamino)-1-(4-fluorophenyl)-2-oxoethyl)-N-(3-chlorophenyl)-propiolamide], the pEC50 is not below 7.00.

For `C#CC(=O)N(c1cc(Cl)ccc1F)C(C(=O)NCc1ccccc1)c1cccc(N)c1` (centres unmarked) [A40, N-(1-(3-Aminophenyl)-2-(benzylamino)-2-oxoethyl)-N-(5-chloro-2-fluorophenyl)-propiolamide], the pEC50 is not below 7.00.

For the compound `C#CC(=O)N(c1ccc(CO)cc1)C(C(=O)NC(C)(C)C)c1cccc(N)c1` (centres unmarked) [A26, N-(1-(3-Aminophenyl)-2-(tert-butylamino)-2-oxoethyl)-N-(4-(hydroxymethyl)-phenyl)propiolamide], the pEC50 is 5.00 to 5.70.

On to `C#CC(=O)N(c1ccc2c(c1)OCO2)C1(C(=O)NCc2ccccc2)CCOCC1` [A151, 4-(N-(Benzo[d][1,3]dioxol-5-yl)propiolamido)-N-benzyltetrahydro-2H-pyran-4-carboxamide], for which the pEC50 is 6.30 to 7.00.

Regarding `C#CC(=O)N(c1cccc(NS(C)(=O)=O)c1)C(C(=O)NCc1ccccc1)c1cccc(N)c1` (centres unmarked) [A42, N-(1-(3-Aminophenyl)-2-(benzylamino)-2-oxoethyl)-N-(3-(methylsulfonamido)-phenyl)propiolamide], the pEC50 was 5.00 to 5.70.

For the compound `C#CC(=O)N(c1cccc(Cl)c1)C1(C(=O)NCc2cccc(Cl)c2)CCOCC1` [A182, N-(3-Chlorobenzyl)-4-(N-(3-chlorophenyl)propiolamido)tetrahydro-2H-pyran-4-carboxamide], the pEC50 was not below 7.00.

For the compound `COc1ccc(N(C(=O)CCl)C2(C(=O)NCc3ccccc3)CCC(F)(F)CC2)cc1Cl` [C27, N-Benzyl-1-(2-chloro-N-(3-chloro-4-methoxyphenyl)acetamido)-4,4-difluoro-cyclohexane-1-carboxamide], the pEC50 is not below 7.00.

For the compound `C#CC(=O)N(c1cccc(Cl)c1)C(C(=O)NCc1ccccc1)C1CCC(C(=O)OC)CC1` (centres unmarked) [A77, Methyl 4-(2-(benzylamino)-1-(N-(3-chlorophenyl)propiolamido)-2-oxoethyl)-cyclohexane-1-carboxylate], the pEC50 was 6.30 to 7.00.

`C#CC(=O)N(c1ccn(C)c(=O)c1)C(C(=O)NCc1ccccc1)c1ccccc1` (centres unmarked) [A102, N-(2-(Benzylamino)-2-oxo-1-phenylethyl)-N-(1-methyl-2-oxo-1,2-dihydropyridin-4-yl)propiolamide]: the pEC50 was 5.00 to 5.70.

Turning to `CC#CC(=O)N(c1cccc(Cl)c1)C(C(=O)NCc1ccccc1)c1ccccc1` (centres unmarked) [A117, N-(2-(Benzylamino)-2-oxo-1-phenylethyl)-N-(3-chlorophenyl)but-2-ynamide], the pEC50 was less than 5.00.

With `C#CC(=O)N(c1ccc(Cl)cc1)C(C(=O)NC(C)(C)C)c1ccc(N)cc1` (centres unmarked) [A4, N-(1-(4-Aminophenyl)-2-(tert-butylamino)-2-oxoethyl)-N-(4-chlorophenyl)-propiolamide], the pEC50 was 6.30 to 7.00.

For `CC#CC(=O)N(c1cncc(Cl)c1)C(C(=O)NCc1ccccc1)c1ccccc1` (centres unmarked) [A133, N-(2-(Benzylamino)-2-oxo-1-phenylethyl)-N-(5-chloropyridin-3-yl)but-2-ynamide], the pEC50 was less than 5.00.

Consider `C#CC(=O)N(c1ccc(NC(C)=O)cc1)C(C(=O)NC(C)(C)C)c1cccc(N)c1` (centres unmarked) [A23, N-(4-Acetamidophenyl)-N-(1-(3-aminophenyl)-2-(tert-butylamino)-2-oxoethyl)-propiolamide], for which the pEC50 was 5.00 to 5.70.

Turning to `C#CC(=O)N(c1cccc(S(C)(=O)=O)c1)C(C(=O)NC(C)(C)C)c1ccc(N)cc1` (centres unmarked) [A6, N-(1-(4-Aminophenyl)-2-(tert-butylamino)-2-oxoethyl)-N-(3-(methylsulfonyl)phenyl)propiolamide], the pEC50 is 5.00 to 5.70.

Consider `C#CC(=O)N(c1cccc(Cl)c1)C1(C(=O)NCC(=O)Nc2ccccc2)CCOCC1` [A193, 4-(N-(3-Chlorophenyl)propiolamido)-N-(2-oxo-2-(phenylamino)ethyl)tetrahydro-2H-pyran-4-carboxamide], for which the pEC50 was 6.30 to 7.00.

For `C#CC(=O)N(c1cccc(C(N)=O)c1)C(C(=O)NCc1ccccc1)c1ccc(N)cc1` (centres unmarked) [A62, 3-(N-(1-(4-Aminophenyl)-2-(benzylamino)-2-oxoethyl)propiolamido)-benzamide], the pEC50 was less than 5.00.

On to `O=C(NCCc1ccccc1)C(c1ccc([N+](=O)[O-])cc1)N(Cc1ccccc1)C(=O)CCl` (centres unmarked) [C12, N-Benzyl-2-chloro-N-(1-(4-nitrophenyl)-2-oxo-2-(phenethylamino)ethyl)-acetamide], for which the pEC50 is 5.00 to 5.70.

In the case of `C#CC(=O)N(c1ccc(Cl)c(Cl)c1)C1(C(=O)NCc2ccccc2)CCOCC1` [A108, N-Benzyl-4-(N-(3,4-dichlorophenyl)propiolamido)tetrahydro-2H-pyran-4-carboxamide], the pEC50 is not below 7.00.

As to `C#CC(=O)N(c1ccc2nsnc2c1)C(C(=O)NCc1ccccc1)c1ccccc1` (centres unmarked) [A94, N-(Benzo[c][1,2,5]thiadiazol-5-yl)-N-(2-(benzylamino)-2-oxo-1-phenylethyl)-propiolamide], the pEC50 was not below 7.00.

As to `CN(C)C/C=C/C(=O)N(c1ccc2c(cnn2C)c1)C1(C(=O)NCc2ccccc2)CCOCC1` [B10, (E)-N-Benzyl-4-(4-(dimethylamino)-N-(1-methyl-1H-indazol-5-yl)but-2-enamido)tetrahydro-2H-pyran-4-carboxamide], the pEC50 was less than 5.00.

Take `C#CC(=O)N(c1cccc(F)c1)C(C(=O)NCc1ccccc1)c1cccc(N)c1` (centres unmarked) [A43, N-(1-(3-Aminophenyl)-2-(benzylamino)-2-oxoethyl)-N-(3-fluorophenyl)-propiolamide]: the pEC50 is 6.30 to 7.00.

Take `CC#CC(=O)N(c1ccc2c(cnn2C)c1)C1(C(=O)NCc2ccccc2)CCOCC1` [A125, N-Benzyl-4-(N-(1-methyl-1H-indazol-5-yl)but-2-ynamido)tetrahydro-2H-pyran-4-carboxamide]: the pEC50 was less than 5.00.
